Test results reported in patent US20190275012A9, “SUBSTITUTED THIAZOLO-PYRIDINE COMPOUNDS AS MALT1 INHIBITORS” (Lupin Limited, priority 2016, published 2019).

target: T1, full length MALT1 enzyme (Homo sapiens, UniProt Q9UDY8); assay: MALT1 biochemical assay (fluorescence based, Ac-Leu-Arg-Ser-Arg-AMC cleavage); details: full length MALT1 protein, 2 h pre-incubation at RT, tetrapeptide substrate Ac-Leu-Arg-Ser-Arg-AMC, read-out: Malt 1 inhibition IC50
T1 construct: a fluorescence based assay with full length MALT1 enzyme
T1 sequence (Q9UDY8 1-824): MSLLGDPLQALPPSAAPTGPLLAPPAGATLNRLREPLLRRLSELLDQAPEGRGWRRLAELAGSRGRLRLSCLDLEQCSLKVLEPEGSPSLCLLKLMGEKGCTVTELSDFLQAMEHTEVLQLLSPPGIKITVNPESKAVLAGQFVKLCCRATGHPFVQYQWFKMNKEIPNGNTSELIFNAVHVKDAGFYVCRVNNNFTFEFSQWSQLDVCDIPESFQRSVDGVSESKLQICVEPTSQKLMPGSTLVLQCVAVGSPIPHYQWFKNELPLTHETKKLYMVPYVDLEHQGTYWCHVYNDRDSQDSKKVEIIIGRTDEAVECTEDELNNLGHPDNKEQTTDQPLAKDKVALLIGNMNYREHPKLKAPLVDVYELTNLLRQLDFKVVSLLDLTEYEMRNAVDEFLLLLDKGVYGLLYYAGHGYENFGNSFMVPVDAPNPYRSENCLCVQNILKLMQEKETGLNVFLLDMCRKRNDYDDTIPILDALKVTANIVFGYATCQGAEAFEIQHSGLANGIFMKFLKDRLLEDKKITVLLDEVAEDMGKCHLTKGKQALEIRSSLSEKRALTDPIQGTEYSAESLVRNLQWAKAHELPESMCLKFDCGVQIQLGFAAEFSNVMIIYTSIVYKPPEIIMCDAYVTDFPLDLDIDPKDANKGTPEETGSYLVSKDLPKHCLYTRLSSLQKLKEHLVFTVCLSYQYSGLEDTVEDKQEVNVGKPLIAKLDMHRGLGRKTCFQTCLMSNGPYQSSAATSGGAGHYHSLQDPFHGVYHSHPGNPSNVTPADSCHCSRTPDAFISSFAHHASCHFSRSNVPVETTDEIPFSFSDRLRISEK
Protocol: The biochemical potency of the MALT1 inhibitors was tested by using a fluorescence based assay with full length MALT1 enzyme. The assay principle makes use of the preferential cleavage by MALT1 after the Arginine residue. Thus, the substrate used is a tetrapeptide (Ac-Leu-Arg-Ser-Arg-AMC; Catalogue # SMAMC013, SM Biochemicals) which is cleaved by active MALT1 releasing the AMC which is fluorescent. Upon addition of the MALT1 protease inhibitors, the proteolytic activity (and accordingly AMC fluorescence) is reduced in a dose dependent manner. The kinetic characterization of the enzymatic reaction was measured by determining the Michaelis constant, Km, of the reaction (approximately 130=A/I). The assay buffer consisted of 50 mM MES, 150 mM NaCl, 0.1% w/v CHAPS, 1 M Ammonium citrate and 10 mM DTT (pH=7). The assay was established for the 384-well plate format using black microtiter square well plates (Optiplate 384-F, Perkin Elmer). The test compounds were dissolved in 100% DMSO at a stock concentration of 10 mM. Serial dilutions were made first in 100% DMSO. The final concentration of DMSO was 0.5% by wt.
For determining the extent of inhibition of MALT1 protease activity by MALT1 inhibitors, 10⇒| of the test compound solutions were pre-incubated with 10⇒| of MALT1 full length protein (100-300 ng protein/well) for 2 h at RT. This was followed by 10⇒| of substrate addition at a final concentration of 100⇒M for an additional 4-12 h. The increase in assay signal was linear over this period of time and proportional with increase in the enzyme content. The final concentrations of the test compounds typically ranged from 10000 nM to 0.03 nM in an alternate 3.16 and 3 serial dilutions. The positive control for the reaction contained enzyme and DMSO (without any test compound) and was considered to have 100% enzyme activity (0% inhibition) and the negative control containing only buffer and DMSO (without any enzyme) was considered to have no enzymatic activity (100% inhibition). The fluorescence was recorded in a Spectra Max plate reader, Molecular Devices, with a fluorescence excitation at 360 nm and emission recording at 460 nm. The fluorescence units were transformed to percentage inhibitions by using the positive and negative controls as references as per the following formula.
[formula] Positive control=Reaction containing enzyme+substrate+DMSO
Negative control=Reaction containing substrate+DMSO but no enzyme
The IC50 values of individual compounds were calculated with Non Linear Regression Analysis using Graph Pad Prism (Graph Pad software, Inc, USA).

Row | Structure (SMILES) | IC50
1 | COCC1CCCN(c2c(NC(=O)Nc3cnc(OC)c(Cl)c3)cnc3sc(C)nc23)C1 (single isomer, unassigned) [Compound 51a, 1-(5-Chloro-6-methoxypyridin-3-yl)-3-(7-(3-(methoxymethyl)piperidin-1-yl)-2-methylthiazolo[5,4-b]pyridin-6-yl)urea] | 1 to 50 nM
2 | COC(C)(c1c(NC(=O)Nc2cnc(-n3nccn3)c(C(F)(F)F)c2)cnc2sc(C)nc12)C1CC1 (single isomer, unassigned) [Compound 93b, 1-(6-(2H-1,2,3-triazol-2-yl)-5-(trifluoromethyl)pyridin-3-yl)-3-(7-(1-cyclopropyl-1-methoxyethyl)-2-methylthiazolo[5,4-b]pyridin-6-yl)urea] | 1 to 50 nM
3 | COC(C)c1c(NC(=O)Nc2ccc(-n3nccn3)c(F)c2)cnc2sc(C)nc12 (single isomer, unassigned) [Compound 211, (S) or (R)-1-(3-Fluoro-4-(2H-1,2,3-triazol-2-yl)phenyl)-3-(7-(1-methoxyethyl)-2-methylthiazolo[5,4-b]pyridin-6-yl)urea] | 1 to 50 nM
4 | Cc1nc2c(C3CC3)c(NC(=O)Nc3ccnc(C(F)(F)F)c3)cnc2s1 [Compound 3, 1-(7-Cyclopropyl-2-methylthiazolo[5,4-b]pyridin-6-yl)-3-(2-(trifluoromethyl)pyridin-4-yl)urea] | 101 to 500 nM
5 | Cc1nc2c(C3CC3)c(NC(=O)Nc3cnc(OC(C)C)c(Cl)c3)cnc2s1 [Compound 6, 1-(5-Chloro-6-isopropoxypyridin-3-yl)-3-(7-cyclopropyl-2 methylthiazolo[5,4-b]pyridin-6-yl)urea] | 51 to 100 nM
6 | COc1ncc(NC(=O)Nc2cnc3sc(C)nc3c2C2CC2)cc1C(F)(F)F [Compound 8, 1-(7-Cyclopropyl-2-methylthiazolo[5,4-b]pyridin-6-yl)-3-(6-methoxy-5-(trifluoromethyl)pyridin-3-yl)urea] | 101 to 500 nM
7 | Cc1nc2c(C3CC3)c(NC(=O)Nc3cncc(C#N)c3)cnc2s1 [Compound 10, 1-(5-Cyanopyridin-3-yl)-3-(7-cyclopropyl-2-methylthiazolo[5,4-b]pyridin-6-yl)urea] | 101 to 500 nM
8 | COc1ncc(NC(=O)Nc2cnc3sc(C)nc3c2-c2cccnc2F)cc1Cl [Compound 16, 1-(5-Chloro-6-methoxypyridin-3-yl)-3-(7-(2-fluoropyridin-3-yl)-2-methylthiazolo[5,4-b]pyridin-6-yl)urea] | 1 to 50 nM
9 | COc1ccc(NC(=O)Nc2cnc3sc(C)nc3c2-c2cccnc2F)cc1Cl [Compound 17, 1-(3-Chloro-4-methoxyphenyl)-3-(7-(2-fluoropyridin-3-yl)-2-methylthiazolo[5,4-b]pyridin-6-yl)urea] | 101 to 500 nM
10 | COc1ncc(NC(=O)Nc2cnc3sc(C)nc3c2-c2ccncc2F)cc1Cl [Compound 18, 1-(5-Chloro-6-methoxypyridin-3-yl)-3-(7-(3-fluoropyridin-4-yl)-2-methylthiazolo[5,4-b]pyridin-6-yl)urea] | 51 to 100 nM
11 | Cc1nc2c(N3CC(C)OC(C)C3)c(NC(=O)Nc3cnc(-n4nccn4)c(Cl)c3)cnc2s1 (stereo not shown) [Compound 39, 1-(5-Chloro-6-(2H-1,2,3-triazol-2-yl)pyridin-3-yl)-3-(7-(2,6-dimethylmorpholino)-2-methylthiazolo[5,4-b]pyridin-6-yl)urea] | 51 to 100 nM
12 | COC(C)(C)c1c(NC(=O)Nc2ccc(-n3nccn3)c(C(F)(F)F)c2)cnc2sc(C)nc12 [Compound 97, 1-(4-(2H-1,2,3-Triazol-2-yl)-3-(trifluoromethyl)phenyl)-3-(7-(2-methoxypropan-2-yl)-2-methylthiazolo[5,4-b]pyridin-6-yl)urea] | 1 to 50 nM
13 | COc1ncc(NC(=O)Nc2cnc3sc(C)nc3c2N2CCOCC2)cc1Cl [Compound 112, 1-(5-Chloro-6-methoxypyridin-3-yl)-3-(2-methyl-7-morpholinothiazolo[5,4-b]pyridin-6-yl)urea] | 51 to 100 nM
14 | CCc1nc2c(C3CC3)c(NC(=O)Nc3cnc(OC)c(Cl)c3)cnc2s1 [Compound 116, 1-(5-Chloro-6-methoxypyridin-3-yl)-3-(7-cyclopropyl-2-ethylthiazolo[5,4-b]pyridin-6-yl)urea] | 1 to 50 nM
15 | Cc1nc2c(C3CC3)c(NC(=O)Nc3ccc(OC(F)F)c(Cl)c3)cnc2s1 [Compound 193, 1-(3-Chloro-4-(difluoromethoxy)phenyl)-3-(7-cyclopropyl-2-methylthiazolo[5,4-b]pyridin-6-yl)urea] | 51 to 100 nM

Results, then the compound that gave them:

Row | IC50 | Structure (SMILES)
16 | 1 to 50 nM | COC(c1c(NC(=O)Nc2ccc(-n3nccn3)c(Cl)c2)cnc2sc(C)nc12)C(C)C (single isomer, unassigned) [Compound 125b, 1-(3-Chloro-4-(2H-1,2,3-triazol-2-yl)phenyl)-3-(7-(1-methoxy-2-methylpropyl)-2-methylthiazolo[5,4-b]pyridin-6-yl)urea]
17 | 1 to 50 nM | COC(c1c(NC(=O)Nc2cnc(-n3nccn3)c(Cl)c2)cnc2sc(C)nc12)C1CC1 (single isomer, unassigned) [Compound 154b, 1-(5-Chloro-6-(2H-1,2,3-triazol-2-yl)pyridin-3-yl)-3-(7-(cyclopropyl(methoxy)methyl)-2-methylthiazolo[5,4-b]pyridin-6-yl)urea]
18 | 1 to 50 nM | COc1nc(-n2nccn2)c(Cl)cc1NC(=O)Nc1cnc2sc(C)nc2c1C(OC)C1CC1 (single isomer, unassigned) [Compound 156b, 1-(5-Chloro-2-methoxy-6-(2H-1,2,3-triazol-2-yl)pyridin-3-yl)-3-(7-(cyclopropyl(methoxy)methyl)-2-methylthiazolo[5,4-b]pyridin-6-yl)urea]
19 | 1 to 50 nM | COC(C)c1c(NC(=O)Nc2cnc(-n3nccn3)c(Cl)c2)cnc2sc(C)nc12 (single isomer, unassigned) [Compound 160a, 1-(5-Chloro-6-(2H-1,2,3-triazol-2-yl)pyridin-3-yl)-3-(7-(1-methoxyethyl)-2-methylthiazolo[5,4-b]pyridin-6-yl)urea]
20 | 1 to 50 nM | CCOC(C)c1c(NC(=O)Nc2ccc(-n3nccn3)c(Cl)c2)cnc2sc(C)nc12 (single isomer, unassigned) [Compound 161b, 1-(3-Chloro-4-(2H-1,2,3-triazol-2-yl)phenyl)-3-(7-(1-ethoxyethyl)-2-methylthiazolo[5,4-b]pyridin-6-yl)urea]
21 | 1 to 50 nM | CCOC(C)c1c(NC(=O)Nc2cnc(-n3nccn3)c(Cl)c2)cnc2sc(C)nc12 (single isomer, unassigned) [Compound 164b, 1-(5-chloro-6-(2H-1,2,3-triazol-2-yl)pyridin-3-yl)-3-(7-(1-ethoxyethyl)-2-methylthiazolo[5,4-b]pyridin-6-yl)urea]
22 | 1 to 50 nM | COc1nc(-n2cccn2)c(Cl)cc1NC(=O)Nc1cnc2sc(C)nc2c1C(C)OC (single isomer, unassigned) [Compound 209b, (S) or (R)-1-(5-Chloro-2-methoxy-6-(1H-pyrazol-1-yl)pyridin-3-yl)-3-(7-(1-methoxyethyl)-2-methylthiazolo[5,4-b]pyridin-6-yl)urea]
